The record followed here is US7879760B2, “Isopentyl carboxanilides for combating undesired micro-organisms” (Bayer CropScience AG, priority 2003, dated 2011).

Where a name gives a salt, the structure may show the parent alone.

The first data set deals with Venturia inaequalis. Nature of the data set: Venturia test (apple)/protective. The note with it: apple plants, protective spray, application rate 100 g/ha, read-out: Efficacy in %. Format: in vivo. As for the experimental part:
[table] To produce a suitable preparation of active compound, 1 part by weight of active compound is mixed with the stated amounts of solvents and emulsifier, and the concentrate is diluted with water to the desired concentration. To test for protective activity, young plants are sprayed with the preparation of active compound at the stated application rates. After the spray coating has dried on, the plants are inoculated with an aqueous conidia suspension of the apple scab pathogen Venturia inaequalis and then remain in an incubation cabin at about 20° C. and 100% relative atmospheric humidity for 1 day. The plants are then placed in a greenhouse at about 21° C. and a relative atmospheric humidity of about 90%.
On to `Cc1nn(C)c(F)c1C(=O)Nc1ccccc1CCC(C)C` [drawing 101], for which the pest or weed control at 100 g/ha came to 96%. Same read-out and setting: the value for `Cc1nn(C)c(F)c1C(=O)Nc1ccccc1CCC(C)(C)C` [drawing 102] was 100%; that for `Cc1ccsc1C(=O)Nc1ccccc1CCC(C)(C)C` [drawing 103] was 99%. Same read-out and setting: the value for `Cc1ccccc1C(=O)Nc1ccccc1CCC(C)(C)C` [drawing 104] was 97%.

For `CCC(C)(C)CCc1ccccc1NC(=O)c1c(C)nn(C)c1F` [drawing 105], the pest or weed control at 100 g/ha stood at 100%.

Regarding `CCC(C)(C)CCc1ccccc1NC(=O)c1cn(C)nc1C(F)F` [drawing 106], the pest or weed control at 100 g/ha turned out to be 100%. Same read-out and setting: as for `Cn1cc(C(=O)Nc2ccccc2CCC(C)(C)C)c(C(F)F)n1` [drawing 107], the figure is 100%. Same read-out and setting: as for `Cn1nc(C(F)(F)F)c(C(=O)Nc2ccccc2CCC(C)(C)C)c1F` [drawing 108], the figure is 100%; as for `Cn1cc(C(=O)Nc2ccc(F)cc2CCC(C)(C)C)c(C(F)F)n1` [drawing 109], 100%.

A further data set concerns Puccinia recondita. Nature of the data set: Puccinia test (wheat)/curative. In kind it is in vivo. The conditions noted are these: 192 h, wheat plants, curative spray 48 hours after inoculation, application rate 500 g/ha, evaluation 8 days after inoculation, read-out: Efficacy in %. As for the experimental part:
(§1) To produce a suitable preparation of active compound, 1 part by weight of active compound is mixed with the stated amounts of solvent and emulsifier, and the concentrate is diluted with water to the desired concentration.
To test for curative activity, young plants are sprayed with a conidia suspension of Puccinia recondita. The plants remain in an incubation cabin at 20° C. and 100% relative atmospheric humidity for 48 hours. The plants are then sprayed with the preparation of active compound at the stated application rates.
The plants are then placed in a greenhouse at a temperature of about 20° C. and a relative atmospheric humidity of 80% to promote the development of rust pustules.
Evaluation is carried out 8 days after the inoculation. 0% means an efficacy which corresponds to that of the control, whereas an efficacy of 100% means that no infection is observed.
Regarding `Cc1ccccc1C(=O)Nc1ccccc1CCC(C)C`, the pest or weed control at 500 g/ha stood at 100%.

For `Cc1nn(C)c(F)c1C(=O)Nc1ccccc1CCC(C)C` [drawing 119], the pest or weed control at 500 g/ha came out at 100%.

As to `Cc1nn(C)c(F)c1C(=O)Nc1ccccc1CCC(C)(C)C` [drawing 120], the pest or weed control at 500 g/ha was 100%.

In the case of `Cc1ccsc1C(=O)Nc1ccccc1CCC(C)(C)C` [drawing 121], the pest or weed control at 500 g/ha is 100%. Still for that read-out and setting: as for `CC(C)CCc1ccccc1NC(=O)c1ccccc1C(F)(F)F` [drawing 122], the figure is 100%. In the case of `CCC(C)(C)CCc1ccccc1NC(=O)c1c(C)nn(C)c1F` [drawing 124], the pest or weed control at 500 g/ha was 100%. Regarding `CCC(C)(C)CCc1ccccc1NC(=O)c1cn(C)nc1C(F)F` [drawing 125], the pest or weed control at 500 g/ha amounted to 100%. For the compound `Cn1cc(C(=O)Nc2ccccc2CCC(C)(C)C)c(C(F)F)n1` [drawing 126], the pest or weed control at 500 g/ha worked out at 100%.

On to `Cn1cc(C(=O)Nc2ccc(F)cc2CCC(C)(C)C)c(C(F)F)n1` [drawing 127], for which the pest or weed control at 500 g/ha was determined as 100%.

The subject of the next data set is Sphaerotheca fuliginea. Nature of the data set: Sphaerotheca test (cucumber)/protective. The note with it: cucumber plants, protective spray; application rate 750 g/ha; evaluation 7 days after inoculation. Format: in vivo. As for the experimental part: as §1
To test for protective activity, young cucumber plants are sprayed with the preparation of active compound at the stated application rates. One day after the treatment, the plants are inoculated with a spore suspension of Sphaerotheca fuliginea. The plants are then placed in a greenhouse at 70% relative atmospheric humidity and a temperature of 23° C.
Evaluation is carried out 7 days after the inoculation. 0% means an efficacy which corresponds to that of the control, whereas an efficacy of 100% means that no infection is observed.
Compound `Cc1nn(C)c(F)c1C(=O)Nc1ccccc1CCC(C)C` [drawing 128] returned an Efficacy in % of 100%.

Compound `Cc1ccsc1C(=O)Nc1ccccc1CCC(C)(C)C` [drawing 129] displayed an Efficacy in % of 100%.

In turn, `CC(C)CCc1ccccc1NC(=O)c1ccccc1C(F)(F)F` [drawing 130] came in with an Efficacy in % of 100%. Same read-out and setting: as for `Cc1ccccc1C(=O)Nc1ccccc1CCC(C)(C)C` [drawing 131], the figure is 100%.

The subject of a further data set is Podosphaera leucotricha. Kind of data set: Podosphaera test (apple)/protective. Format: in vivo. The note with it: 240 h, apple plants, protective spray, application rate 100 g/ha, evaluation 10 days after inoculation, read-out: Efficacy in %. As for the experimental part: To produce a suitable preparation of active compound, 1 part by weight of compound is mixed with the stated amounts of solvents and emulsifier, and the concentrate is diluted with water to the desired concentration.
To test for protective activity, young plants are sprayed with the preparation of active compound at the stated application rates. After the spray coating has dried on, the plants are inoculated with an aqueous spore suspension of the apple mildew pathogen Podosphaera leucotricha. The plants are then placed in a greenhouse at about 23° C. and a relative atmospheric humidity of about 70%.
Evaluation is carried out 10 days after the inoculation. 0% means an efficacy which corresponds to that of the control, whereas an efficacy of 100% means that no infection is observed.
With `Cc1nn(C)c(F)c1C(=O)Nc1ccccc1CCC(C)C` [drawing 93], the pest or weed control at 100 g/ha was 100%.

In the case of `Cc1nn(C)c(F)c1C(=O)Nc1ccccc1CCC(C)(C)C` [drawing 94], the pest or weed control at 100 g/ha came to 100%.

As to `Cc1ccsc1C(=O)Nc1ccccc1CCC(C)(C)C` [drawing 95], the pest or weed control at 100 g/ha came to 99%.

Take `Cc1ccccc1C(=O)Nc1ccccc1CCC(C)(C)C` [drawing 96]: the pest or weed control at 100 g/ha was determined as 97%. On the same count and under the same terms, as for `CCC(C)(C)CCc1ccccc1NC(=O)c1c(C)nn(C)c1F` [drawing 97], the figure is 99%.

Consider `CCC(C)(C)CCc1ccccc1NC(=O)c1cn(C)nc1C(F)F` [drawing 98], for which the pest or weed control at 100 g/ha amounted to 100%. As for `Cn1cc(C(=O)Nc2ccccc2CCC(C)(C)C)c(C(F)F)n1` [drawing 99], the pest or weed control at 100 g/ha came to 100%. Still for that read-out and setting: the value for `Cn1nc(C(F)(F)F)c(C(=O)Nc2ccccc2CCC(C)(C)C)c1F` [drawing 100] was 100%.

For the next data set, the system named is Botrytis cinerea. Nature of the data set: Botrytis test (bean)/protective. Format: in vivo. The note with it: 48 h, bean plants, protective spray, application rate 500 g/ha, evaluation two days after inoculation, read-out: Efficacy in %. As for the experimental part: To produce a suitable preparation of active compound, 1 part by weight of active compound is mixed with the stated amounts of solvents and emulsifier, and the concentrate is diluted with water to the desired concentration.
To test for protective activity, young plants are sprayed with the preparation of active compound at the stated application rates. After the spray coating has dried on, 2 small pieces of agar colonized by Botrytis cinerea are placed onto each leaf. The inoculated plants are placed in a dark chamber at about 20° C. and 100% relative atmospheric humidity.
Two days after the inoculation, the size of the infected areas on the leaves is evaluated. 0% means an efficacy which corresponds to that of the control, whereas an efficacy of 100% means that no infection is observed.
Consider `Cc1nn(C)c(F)c1C(=O)Nc1ccccc1CCC(C)C` [drawing 110], for which the pest or weed control at 500 g/ha came to 84%.

In the case of `Cc1nn(C)c(F)c1C(=O)Nc1ccccc1CCC(C)(C)C` [drawing 111], the pest or weed control at 500 g/ha turned out to be 100%.

For `Cc1ccsc1C(=O)Nc1ccccc1CCC(C)(C)C` [drawing 112], the pest or weed control at 500 g/ha came out at 100%. Still for that read-out and setting: the value for `Cc1ccccc1C(=O)Nc1ccccc1CCC(C)(C)C` [drawing 113] was 87%; that for `CCC(C)(C)CCc1ccccc1NC(=O)c1c(C)nn(C)c1F` [drawing 114] was 100%.

On to `CCC(C)(C)CCc1ccccc1NC(=O)c1cn(C)nc1C(F)F` [drawing 115], for which the pest or weed control at 500 g/ha was 100%. The same measure, in the same setting: as for `Cn1cc(C(=O)Nc2ccccc2CCC(C)(C)C)c(C(F)F)n1` [drawing 116], the figure is 100%.

On to `Cn1nc(C(F)(F)F)c(C(=O)Nc2ccccc2CCC(C)(C)C)c1F` [drawing 117], for which the pest or weed control at 500 g/ha worked out at 100%. In the case of `Cn1cc(C(=O)Nc2ccc(F)cc2CCC(C)(C)C)c(C(F)F)n1` [drawing 118], the pest or weed control at 500 g/ha amounted to 100%.

System in another data set: not listed separately
Kind of data set: logP determination by HPLC on reversed phase column (C 18), EEC-Directive 79/831 Annex V.A8. Format: physicochemical. The note with it: reversed phase HPLC column (C 18), pH 2.3, 0.1% aqueous phosphoric acid/acetonitrile gradient, 43° C. As for the experimental part:
The determination of the logP values given in preparation examples and tables above is carried out according to EEC-Directive 79/831 Annex V.A8 by HPLC (High Performance Liquid Chromatography) on a reversed phase column (C 18). Temperature: 43° C.
Determination is carried out in the acidic range at pH 2.3 using the mobile phases 0.1% aqueous phosphoric acid and acetonitrile; linear gradient from 10% acetonitrile to 90% acetonitrile.
Calibration is carried out using unbranched alkan-2-ones (of 3 to 16 carbon atoms) whose logP values are known (determination of the logP values by retention times using linear interpolation between two successive alkanones).
As to `Cc1nn(C)c(F)c1C(=O)Nc1ccccc1CCC(C)C` [Example 1, 5-fluoro-1,3-dimethyl-N-[2-(3-methylbutyl)phenyl]-1H-pyrazole-4-carboxamide], the chromatographic logP (usually lipophilicity estimated from chromatographic retention) was determined as 3.12. `CC(=O)Nc1ccccc1CCC(C)(C)C` [Example (III-2), N-[2-(3,3-dimethylbutyl)phenyl]acetamide]: the chromatographic logP turned out to be 2.69. In turn, `CC(C)(C)CCc1ccccc1N` [Example (III-3), 2-(3,3-dimethylbutyl)phenylamine hydrochloride] had a chromatographic logP of 2.2. `Cc1nn(C)c(F)c1C(=O)Nc1ccccc1C(=O)CC(C)C` [Example (V-1)] displayed a chromatographic logP of 3.42. On the same count and under the same terms, the value for `CC(C)(C)C#Cc1ccccc1NC(=O)c1ccccc1C(F)(F)F` [Example (VII-1), N-[2-(3,3-dimethylbut-1-ynyl)phenyl]-2-trifluoromethylbenzamide] was 4.55; that for `CC(C)CC(=O)c1ccccc1N` [Example (X-1), 1-(2-aminophenyl)-3-methylbutan-1-one] was 2.89; that for `CC(=O)Nc1ccccc1C#CC(C)(C)C` [Example (XIII-1), N-[2-(3,3-dimethylbut-1-ynyl)-phenyl]acetamide] was 3.03.
